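Compound exposure: 48 hours, 5 concentrations, 96-well plates. The concentration for 50% growth inhibition is given as GI50. At the TGI there is no net growth.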
Each compound was assayed on SF-268 CNS (assay: NCI anticancer screen, dose series, 48 h).

Row | Structure (SMILES) | GI50 [µM] | TGI [µM]
1 | CCCCCCCC(=O)SCC/C=C/[C@@H]1CC(=O)NCc2cccc(n2)C2=N[C@@](C)(CS2)C(=O)N[C@@H](C(C)C)C(=O)N1 | 2.28 | > 33.3
2 | COc1cc2c(c(OC)c1O)C(=O)C(OC)C(c1ccc(O)c(O)c1)O2 (centres undefined) | 1.5 | > 100
3 | Cn1ccnc1C(=O)/C=C/c1ccc(CC(=O)Nc2ccc(Br)cc2)cc1 | 3.34 | 13
4 | Cc1cnc(NC(=O)C(Cc2ccccc2)NC(=O)c2ccccc2)s1 (centres undefined) | 23.2 | 54.7
5 | CCOC(=O)COc1cccc2c1C(=O)CCO2 |  | > 100
6 | CC(C)c1ccc(C(C)C(=O)N(CC2=C(C(C)c3ccccn3)c3ccccc3C2)C(C)C)cc1 (centres undefined) | 4.62 | > 100
7 | CSc1ccc(/C=C2\CN(C)C/C(=C\c3ccc(SC)cc3)C2=O)cc1 |  | > 100
8 | Cc1nc2c(nc1C)C(=O)c1ccccc1C2=O |  | 46.3
9 | O[C@H]1[C@H]2c3cc4c(cc3CN3CCC(=C[C@@H]1O)[C@H]23)OCO4 |  | 3.57
10 | O=C(Nc1ccc(I)cc1)c1cc([N+](=O)[O-])ccc1O | 7.03 | > 100
11 | Cc1cc(=O)n2[nH]c(-c3ccc(C(C)(C)C)cc3)cc2n1 | 7.85 | 72.8
12 | O=C(O)c1cc(C(=O)O)cc(N2C(=O)c3ccccc3C2=O)c1 |  | > 100
13 | CNC(=O)c1ccccc1Nc1nc(Nc2ccc(N3CCOCC3)cc2OC)ncc1Cl | 1.57 | > 100
14 | O=C(N/C(=C\c1cc(Cl)ccc1Cl)c1nc2[nH]c(=S)[nH]c(=O)c2[nH]1)c1ccccc1 |  | > 100
15 | O=C(CN1CCN(c2cc3c(cc2F)c(=O)c(C(=O)N/N=C/c2ccccc2O)cn3C2CC2)CC1)N/N=C\c1ccccc1O | 0.474 | > 100
16 | C=C(CNCCO)[C@@H]1CC[C@]2(CO)CC[C@]3(C)[C@H](CC[C@@H]4[C@@]5(C)CCC(N)C(C)(C)[C@@H]5CC[C@]43C)[C@@H]12 (some centres undefined) | 2.61 | 10.3
17 | CC(=O)C(CN(C(C)C)C(C)C)C(c1ccccc1)c1c(O)c2ccccc2oc1=O (centres undefined) |  | > 100
18 | NC(CCc1nc(-c2ccc(Cl)cc2)cs1)C(=O)O (centres undefined) |  | > 100
19 | O=C1NC2(CCCCC2)C2CCCCC(O)C12 (centres undefined) |  | > 100
20 | COc1ccc(-n2/c(=N/C(=S)N(C)C)ss/c2=N\C(=S)N(C)C)cc1 |  | > 100
21 | COc1cc(C(=O)/C=C/c2sc(Cl)nc2Cl)cc(OC)c1OC | 1.79 | 3.77
22 | COc1cc2nc(C)nc(N[C@H](C)c3cc(N)cc(C(F)(F)F)c3)c2cc1O[C@H]1CCOC1 | 12.5 | 31.6

The compounds below were run on HCT-116 colon (assay: NCI anticancer screen, dose series, 48 h).

Row | Structure (SMILES) | GI50 [µM] | TGI [µM]
23 | CCCCCCCC(=O)SCC/C=C/[C@@H]1CC(=O)NCc2cccc(n2)C2=N[C@@](C)(CS2)C(=O)N[C@@H](C(C)C)C(=O)N1 | 0.166 | 5.09
24 | COc1cc2c(c(OC)c1O)C(=O)C(OC)C(c1ccc(O)c(O)c1)O2 (centres undefined) | 0.396 | > 100
25 | Cn1ccnc1C(=O)/C=C/c1ccc(CC(=O)Nc2ccc(Br)cc2)cc1 | 1.56 | 4.63
26 | Cc1cnc(NC(=O)C(Cc2ccccc2)NC(=O)c2ccccc2)s1 (centres undefined) | 2.96 | 11.9
27 | CCOC(=O)COc1cccc2c1C(=O)CCO2 |  | > 100
28 | CC(C)c1ccc(C(C)C(=O)N(CC2=C(C(C)c3ccccn3)c3ccccc3C2)C(C)C)cc1 (centres undefined) | 1.94 | 8.02
29 | CSc1ccc(/C=C2\CN(C)C/C(=C\c3ccc(SC)cc3)C2=O)cc1 |  | > 100
30 | Cc1nc2c(nc1C)C(=O)c1ccccc1C2=O |  | 13
31 | O[C@H]1[C@H]2c3cc4c(cc3CN3CCC(=C[C@@H]1O)[C@H]23)OCO4 |  | > 100
32 | O=C(Nc1ccc(I)cc1)c1cc([N+](=O)[O-])ccc1O | 6.21 | 31.7
33 | Cc1cc(=O)n2[nH]c(-c3ccc(C(C)(C)C)cc3)cc2n1 | 8.25 | > 100
34 | O=C(O)c1cc(C(=O)O)cc(N2C(=O)c3ccccc3C2=O)c1 |  | > 100
35 | CNC(=O)c1ccccc1Nc1nc(Nc2ccc(N3CCOCC3)cc2OC)ncc1Cl | 0.537 | > 35.3
36 | O=C(N/C(=C\c1cc(Cl)ccc1Cl)c1nc2[nH]c(=S)[nH]c(=O)c2[nH]1)c1ccccc1 |  | 21.3
37 | O=C(CN1CCN(c2cc3c(cc2F)c(=O)c(C(=O)N/N=C/c2ccccc2O)cn3C2CC2)CC1)N/N=C\c1ccccc1O | 0.443 | > 100
38 | C=C(CNCCO)[C@@H]1CC[C@]2(CO)CC[C@]3(C)[C@H](CC[C@@H]4[C@@]5(C)CCC(N)C(C)(C)[C@@H]5CC[C@]43C)[C@@H]12 (some centres undefined) | 1.81 | 3.84
39 | CC(=O)C(CN(C(C)C)C(C)C)C(c1ccccc1)c1c(O)c2ccccc2oc1=O (centres undefined) |  | > 100
40 | NC(CCc1nc(-c2ccc(Cl)cc2)cs1)C(=O)O (centres undefined) |  | > 100
41 | O=C1NC2(CCCCC2)C2CCCCC(O)C12 (centres undefined) |  | > 100
42 | COc1ccc(-n2/c(=N/C(=S)N(C)C)ss/c2=N\C(=S)N(C)C)cc1 |  | > 100
43 | COc1cc(C(=O)/C=C/c2sc(Cl)nc2Cl)cc(OC)c1OC | 1.75 | 3.18
44 | COc1cc2nc(C)nc(N[C@H](C)c3cc(N)cc(C(F)(F)F)c3)c2cc1O[C@H]1CCOC1 | 11.4 | 29.6

The compounds below were run on NCI-H460 lung (assay: NCI anticancer screen, dose series, 48 h).

Row | Structure (SMILES) | GI50 [µM] | TGI [µM]
45 | CCCCCCCC(=O)SCC/C=C/[C@@H]1CC(=O)NCc2cccc(n2)C2=N[C@@](C)(CS2)C(=O)N[C@@H](C(C)C)C(=O)N1 | 0.532 | > 33.3
46 | COc1cc2c(c(OC)c1O)C(=O)C(OC)C(c1ccc(O)c(O)c1)O2 (centres undefined) | 0.364 | > 100
47 | Cn1ccnc1C(=O)/C=C/c1ccc(CC(=O)Nc2ccc(Br)cc2)cc1 | 3 | 8.51
48 | Cc1cnc(NC(=O)C(Cc2ccccc2)NC(=O)c2ccccc2)s1 (centres undefined) | 3.54 | 13.8
49 | CCOC(=O)COc1cccc2c1C(=O)CCO2 |  | > 100
50 | CC(C)c1ccc(C(C)C(=O)N(CC2=C(C(C)c3ccccn3)c3ccccc3C2)C(C)C)cc1 (centres undefined) | 2.62 | 8.35
51 | CSc1ccc(/C=C2\CN(C)C/C(=C\c3ccc(SC)cc3)C2=O)cc1 |  | > 100
52 | Cc1nc2c(nc1C)C(=O)c1ccccc1C2=O |  | 3.2
53 | O[C@H]1[C@H]2c3cc4c(cc3CN3CCC(=C[C@@H]1O)[C@H]23)OCO4 |  | 5.88
54 | O=C(Nc1ccc(I)cc1)c1cc([N+](=O)[O-])ccc1O | 6.42 | 56.8
